Experimental data as given in patent publication US20200386748A1, “COMPOSITIONS AND METHODS FOR ANALYTE DETECTION USING BIOLUMINESCENCE” (Promega Corporation, priority 2019, published 2020).
Residues, ends and D or L forms follow the SMILES beside them. No end group written: not given here. *: point of attachment. X1 = O=C(CCOCCOCCOCOCCOCCOCCOCCC(=O)*)ON1C(=O)CC(S(=O)(=O)O)C1=O; X3 = O=C(CCOCCOCCOCCOCCOCCOCCC(=O)*)ON1C(=O)CC(S(=O)(=O)O)C1=O; X2 = O=C(CCOCCOCCOCCC(=O)*)ON1C(=O)CC(S(=O)(=O)O)C1=O

Assays:
rhIL-6 = experiment: Solution-based IL-6 immunoassay with antibodies directly labeled with reactive peptides; parameters: species or system human; conditions: for signal in the absence of rhIL-6 / signal to background: paired with HW-1053, 1 μM LgTrip 3546; for IL-6 assay result with LgTrip 5146: 1 μM LgTrip 5146 instead of LgTrip 3546; for signal to background: IL-6 titration; for light output in the presence of high rhIL-6 concentrations: SmTrip9 label on 5IL6 antibody paired with HW-1053-labeled 505E antibody, 1 μM LgTrip 3546
Procedure: The basic principle of homogeneous NanoLuc tripartite immunoassays with directly-labeled antibodies is depicted in FIG. 78.
SmTrip9 variants such as Pep693 (SEQ ID NO: 20), Pep895 (SEQ ID NO: 24), and Pep929 (SEQ ID NO: 25) or SmTrip10 variants such as Pep691 (SEQ ID NO: 18) and Pep692 (SEQ ID NO: 19) were individually dissolved in DMF to 5 mM. […] Subsequently, these antibodies were combined with 20× molar excess of a reactive peptide for 1 hr at 4° C. while shaking in order to covalently label the proteins. […] SmTrip9 reactive peptides were used to label antibody 5IL6 while SmTrip10 reactive peptides were used to label antibody 505E. The denaturing SDS-PAGE gel shown in FIG. 79 was used to characterize the conjugated antibodies.
FIGS. 80-82 display raw RLU dose response curves for antibody conjugates in the presence of a rhIL-6 titration series. […] After addition of N205, luminescence signal was measured. […] Data in FIG. 81 were generated using 62.5 ng/ml of SmTrip9-labeled (HW-0984) 5IL6 antibody and 60 ng/ml of SmTrip10-labeled (HW-1053) 505E antibody. Data in FIG. 82 were generated using the following concentrations of antibody conjugates: 15 ng/ml HW-1043 (SEQ ID NO: 24)+30 ng/ml HW-1053 (SEQ ID NO: 18), 15 ng/ml HW-1052 (SEQ ID NO: 25)+15 ng/ml HW-1053, (SEQ ID NO: 18) 15 ng/ml HW-1055 (SEQ ID NO: 25)+15 ng/ml HW-1053 (SEQ ID NO: 18), 60 ng/ml HW-1042 (SEQ ID NO: 20)+8 ng/ml HW-1053 (SEQ ID NO: 18), and 60 ng/ml HW-1050 (SEQ ID NO: 27)+8 ng/ml HW-1053 (SEQ ID NO: 18).

purified NANOLUC enzyme = molecular target: T1, purified NANOLUC enzyme (Oplophorus gracilirostris, UniProt Q9GV45, A31E/A60N/A81I/F95D/I117V/K70R/L54V/L99Q/M102K/N193R/P142E/Q151K/Q38R/Q45L/V71I/Y165I); assay type: biochemical; conditions: stored in organic solvent at elevated temperature (60° C.)
T1 construct: purchased Promega

LgTrip 3546 = experiment: titration of the single labeled antibody with 1 µM LgTrip 3546 and N205, no IL-6 (FIG. 83)
Sequence of LgTrip 3546 (chain, as listed by the source): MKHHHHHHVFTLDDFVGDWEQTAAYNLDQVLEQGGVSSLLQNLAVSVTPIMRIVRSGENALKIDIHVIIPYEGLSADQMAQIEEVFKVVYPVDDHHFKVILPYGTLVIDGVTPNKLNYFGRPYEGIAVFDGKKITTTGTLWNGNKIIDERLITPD

[1] = Protein buffer formulations for proteins dried on Whatman 903 paper; conditions: buffers 2 and 5
Procedure: For these experiments, Whatman 903 protein saver spot cards were used with the following protein buffer formulations: • Protein buffer 1: 20 mM Na3PO4, 5% w/v BSA, 0.25% v/v tween 20, 10% w/v sucrose • Protein buffer 2: 20 mM Na3PO4, 0.25% v/v tween 20, 10% w/v sucrose • Protein buffer 3: 20 mM Na3PO4, 5% w/v BSA, 0.25% v/v tween 20 • Protein buffer 4: 20 mM Na3PO4, 5% w/v BSA, 0.25% v/v tween 20, 2.5% pullulan • Protein buffer 5: 20 mM Na3PO4, 0.25% v/v tween 20, 2.5% pullulan.
For NanoLuc, a 1000× stock solution was diluted 1:1000 in protein buffer (1 mL). For a 1.068 nM stock solution, 3 μl was diluted into 297 μl of protein buffer. About 5 μL of each concentration was spotted on the filter paper. For LgBiT-1672-11s-His, 5 μL of 1.068 nM protein per spot was used. About 104, was diluted in 990 μL protein buffer for a 2e^−7M stock. About 100 μL of a 100 nM protein solution was then prepared, and about 10 μL stock was diluted into 990 μL protein buffer for 1 nM stock. About 5 μL of each concentration was spotted onto filter paper. For LgTrip 3546, about 5 μL of 1.068 nM protein was used per spot. About 1.1 of LgBiT-1672 stock was diluted into 998.94 μL protein buffer. About 3 μL stock was diluted into 297 μL protein buffer. About 54, of each concentration was spotted onto filter paper. After all protein was added, the samples were dried at 30° C. for about 1 hour. […]

Row | Molecule | signal in the absence of rhIL-6 (rhIL-6) | RLU (LgTrip 3546) [RLU] | other results
1 | CC[C@H](C)[C@H](NC(=O)[C@@H](NC(=O)[C@@H](NC(=O)[C@H](CCCNC(=N)N)NC(=O)[C@H](Cc1ccccc1)NC(=O)[C@H](CC(C)C)NC(=O)[C@H](CCSC)NC(=O)[C@H](CCCNC(=N)N)NC(=O)[C@H](CCCNC(=N)N)NC(=O)CCOCCOCCOCCOCCOCCOCCC(=O)ON1C(=O)CC(S(=O)(=O)O)C1=O)C(C)C)[C@@H](C)O)C(=O)N[C@@H](CCC(N)=O)C(=O)N[C@@H](CCCNC(=N)N)C(=O)N[C@@H](Cc1c[nH]c2ccccc12)C(=O)N[C@@H](CCCNC(=N)N)C(=O)O (some centres unmarked) [HW-1052, SulfoSE-PEG6-SmTrip9 Pep929] (X3-RRMLFRVTIQRWR-OH) | high signal even in the absence of rhIL-6 | – | –
2 | CC[C@H](C)[C@H](NC(=O)[C@@H](NC(=O)[C@@H](NC(=O)[C@@H](NC(=O)[C@H](Cc1ccccc1)NC(=O)[C@H](CC(C)C)NC(=O)[C@H](CC(C)C)NC(=O)[C@H](CCCNC(=N)N)NC(=O)CNC(=O)CCOCCOCCOCCOCOCCOCCOCCC(=O)ON1C(=O)CC(S(=O)(=O)O)C1=O)[C@@H](C)O)C(C)C)[C@@H](C)O)C(=O)N[C@@H](CCC(=O)O)C(=O)N[C@@H](CCCNC(=N)N)C(=O)N[C@@H](Cc1ccc(O)cc1)C(=O)N[C@@H](CCCNC(=N)N)C(N)=O (some centres unmarked) [HW-1043, SulfoSE-PEG6-SmTrip9 Pep895] (X1-GRLLFTVTIERYR-NH2) | low light output in the absence of the analyte | – | IL-6 assay result with LgTrip 5146 (rhIL-6): results similar to LgTrip 3546; signal to background (rhIL-6): best signal to background; light output in the presence of high rhIL-6 concentrations (rhIL-6): ~10^6 RLUs
3 | SulfoSE-PEG3-SmTrip9 Pep938-SA (GRMLFRVTINSWRC; also: SulfoSE-PEG3 label, position not given here) [HW-1050] | low light output in the absence of the analyte | – | IL-6 assay result with LgTrip 5146 (rhIL-6): results similar to LgTrip 3546; signal to background (rhIL-6): best signal to background; light output in the presence of high rhIL-6 concentrations (rhIL-6): ~10^6 RLUs
4 | O=c1c(Cc2ccco2)nc2c(Cc3ccccc3)[nH]c(-c3ccccc3)cn1-2 [furimazine, 8-benzyl-2-(furan-2-ylmethyl)-6-phenylimidazo[1,2-a]pyrazin-3(7H)-one] | – | – | time to loss of all activity (purified NANOLUC enzyme): about 10 days
5 | CC[C@H](C)[C@H](NC(=O)[C@@H](NC(=O)[C@@H](NC(=O)[C@H](CCCNC(=N)N)NC(=O)[C@H](Cc1ccccc1)NC(=O)[C@H](CC(C)C)NC(=O)[C@H](CCSC)NC(=O)[C@H](CCCNC(=N)N)NC(=O)[C@H](CCCNC(=N)N)NC(=O)CCOCCOCCOCCC(=O)ON1C(=O)CC(S(=O)(=O)O)C1=O)C(C)C)[C@@H](C)O)C(=O)N[C@@H](CCC(N)=O)C(=O)N[C@@H](CCCNC(=N)N)C(=O)N[C@@H](Cc1c[nH]c2ccccc12)C(=O)N[C@@H](CCCNC(=N)N)C(=O)O (some centres unmarked) [HW-1055, SulfoSE-PEG3-SmTrip9 Pep929] (X2-RRMLFRVTIQRWR-OH) | high signal even in the absence of rhIL-6 | – | –
6 | GRMLFRVTINSWR (antibody, not shown: large carriers; small tags and cut ends, not fully specified) [anti-IL-6 antibody 5IL6 directly labeled with HW-0984 (SulfoSE-PEG3-SmTrip9 Pep693)] | – | > 1000 | –
7 | VSGWRLFRRIS (antibody, not shown: large carriers; small tags and cut ends, also: peptide labeled on anti-IL-6 antibody 505E via SulfoSE-PEG3 linker) [anti-IL-6 antibody 505E directly labeled with HW-0977 (SulfoSE-PEG3-SmTrip10 Pep691)] | – | 100 | –
8 | GRLLFVVVIERYR (antibody, not shown: large carriers; small tags and cut ends, not fully specified) [anti-IL-6 antibody 5IL6 directly labeled with HW-1010 (SulfoSE-PEG3-SmTrip9 Pep895)] | – | 100 | –
9 | GRMLFRVTINSWR (antibody, not shown: large carriers; small tags and cut ends, not fully specified) [anti-IL-6 antibody 5IL6 directly labeled with HW-1042 (SulfoSE-PEG6-SmTrip9 Pep693)] | – | 100 | –
10 | RRMLFRVTIQRWR (antibody, not shown: large carriers; small tags and cut ends, not fully specified) [anti-IL-6 antibody 5IL6 directly labeled with HW-1052 (SulfoSE-PEG6-SmTrip9 Pep929)] | – | 100 | –
11 | NanoLuc: bioluminescent polypeptide of SEQ ID NO: 5, NanoLuc luciferase (Promega) (protein) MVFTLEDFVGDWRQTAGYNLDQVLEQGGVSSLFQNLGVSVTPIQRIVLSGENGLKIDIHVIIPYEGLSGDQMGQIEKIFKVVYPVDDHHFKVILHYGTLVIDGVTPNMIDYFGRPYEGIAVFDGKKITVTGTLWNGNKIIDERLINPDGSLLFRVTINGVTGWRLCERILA | – | – | change of RLU in protein buffers without BSA [1]: largest decreases in RLU
